Measurements as given in patent US5789431A, “Naphthoquinone antitumor compound and method” (The University of North Carolina at Chapel Hill, priority 1996, dated 1998).

Tests used:
SF-268 = assay: in vitro CNS cancer cell growth inhibition (NCI screen)
TK-10 = assay: in vitro renal cancer cell growth inhibition (NCI screen)
DLD-1 = assay: in vitro colon cancer cell growth inhibition (NCI screen)
human tumor cell lines = type: cell-based
IGROV1 = assay: in vitro ovarian cancer cell growth inhibition (NCI screen)
U 251 = assay: in vitro CNS cancer cell growth inhibition (NCI screen)
NCI-H23 = assay: in vitro non-small cell lung cancer cell growth inhibition (NCI screen)
HOP-92 = assay: as above
M19-MEL = assay: in vitro melanoma cell growth inhibition (NCI screen)
OVCAR-3 = assay: in vitro ovarian cancer cell growth inhibition (NCI screen)
SNB-75 = assay: in vitro CNS cancer cell growth inhibition (NCI screen)
HL-60(TB) = assay: in vitro leukemia cell growth inhibition (NCI screen)
OVCAR-8 = assay: in vitro ovarian cancer cell growth inhibition (NCI screen)
HOP-62 = assay: in vitro non-small cell lung cancer cell growth inhibition (NCI screen)
SNB-19 = assay: in vitro CNS cancer cell growth inhibition (NCI screen)
RXF-393 = assay: in vitro renal cancer cell growth inhibition (NCI screen)
CCRF-CEM = assay: in vitro leukemia cell growth inhibition (NCI screen)
NCI-H522 = assay: in vitro non-small cell lung cancer cell growth inhibition (NCI screen)
HT 29 = assay: in vitro colon cancer cell growth inhibition (NCI screen)
LXFL 529 = assay: in vitro non-small cell lung cancer cell growth inhibition (NCI screen)
KM 20L2 = assay: in vitro colon cancer cell growth inhibition (NCI screen)
COLO-205 = assay: as above
NCI-H460 = assay: in vitro non-small cell lung cancer cell growth inhibition (NCI screen)
SF-539 = assay: in vitro CNS cancer cell growth inhibition (NCI screen)
SW 620 = assay: in vitro colon cancer cell growth inhibition (NCI screen)
OVCAR-4 = assay: in vitro ovarian cancer cell growth inhibition (NCI screen); details: OVACR-4
KM 12 = assay: in vitro colon cancer cell growth inhibition (NCI screen)
M14 = assay: in vitro melanoma cell growth inhibition (NCI screen)
K-562 = assay: in vitro leukemia cell growth inhibition (NCI screen)
SK-MEL-2 = assay: in vitro melanoma cell growth inhibition (NCI screen)
RPMI-8226 = assay: in vitro leukemia cell growth inhibition (NCI screen)
UACC-62 = assay: in vitro melanoma cell growth inhibition (NCI screen)
HCT-116 = assay: in vitro colon cancer cell growth inhibition (NCI screen)
MOLT-4 = assay: in vitro leukemia cell growth inhibition (NCI screen)
SK-MEL-28 = assay: in vitro melanoma cell growth inhibition (NCI screen)
SR = assay: in vitro leukemia cell growth inhibition (NCI screen)
HOP-18 = assay: in vitro non-small cell lung cancer cell growth inhibition (NCI screen)
MCF-7 = assay: in vitro breast cancer cell growth inhibition (NCI screen)
HCT-15 = assay: in vitro colon cancer cell growth inhibition (NCI screen)
SK-MEL-5 = assay: in vitro melanoma cell growth inhibition (NCI screen)
UACC-257 = assay: as above
MDA-MB-435 = assay: in vitro breast cancer cell growth inhibition (NCI screen)
LOX1MVI = assay: in vitro melanoma cell growth inhibition (NCI screen)
MDA-N = assay: in vitro breast cancer cell growth inhibition (NCI screen)
MALME-3M = assay: in vitro melanoma cell growth inhibition (NCI screen)
OVCAR-5 = assay: in vitro ovarian cancer cell growth inhibition (NCI screen)

| SMILES | cytotoxicity log GI50 (TK-10) [M] | cytotoxicity log GI50 (DLD-1) [M] | cytotoxicity log GI50 (IGROV1) [M] | cytotoxicity log GI50 (U 251) [M] | cytotoxicity log GI50 (NCI-H23) [M] | cytotoxicity log GI50 (HOP-92) [M] | cytotoxicity log GI50 (M19-MEL) [M] | cytotoxicity log GI50 (OVCAR-3) [M] | cytotoxicity log GI50 (SNB-75) [M] | cytotoxicity log GI50 (HL-60(TB)) [M] | cytotoxicity log GI50 (SNB-19) [M] | cytotoxicity log GI50 (RXF-393) [M] | cytotoxicity log GI50 (CCRF-CEM) [M] | cytotoxicity log GI50 (NCI-H522) [M] | cytotoxicity log GI50 (NCI-H460) [M] | cytotoxicity log GI50 (SF-539) [M] | cytotoxicity log GI50 (OVCAR-4) [M] | cytotoxicity log GI50 (M14) [M] | cytotoxicity log GI50 (SK-MEL-2) [M] | cytotoxicity log GI50 (UACC-62) [M] | other results |
| --- | --- | --- | --- | --- | --- | --- | --- | --- | --- | --- | --- | --- | --- | --- | --- | --- | --- | --- | --- | --- | --- |
| NC1=C(NC(=O)Cc2ccc(F)cc2)C(=O)c2ccccc2C1=O [Compound 3c] | -4.57 | -4.95 | -4.71 | -5.09 | -4.87 | -4.48 | -5.16 | -4.88 | -4.49 | -4.59 | -4.63 | -4.68 | -4.55 | -4.79 | – | – | – | – | – | – | cytotoxicity log GI50 (SF-268): -4.54 M; cytotoxicity against tumor cells (in words) (human tumor cell lines; cancer cell line panel): inactive against all representative cancer cell lines; cytotoxicity log GI50 (OVCAR-8): -4.47 M; cytotoxicity log GI50 (HOP-62): -4.56 M |
| O=C1c2ccccc2C(=O)c2[nH]c(Cc3ccccc3F)nc21 [Compound 4b] | -4.53 | -4.79 | – | -5.10 | -4.56 | – | – | -4.84 | – | -4.45 | -4.42 | -4.69 | – | -4.67 | -4.47 | -4.51 | -4.55 | – | – | – | cytotoxicity log GI50 (HT 29): -4.49 M; cytotoxicity log GI50 (LXFL 529): -4.50 M; cytotoxicity log GI50 (KM 20L2): -4.47 M; cytotoxicity log GI50 (COLO-205): -4.47 M; cytotoxicity log GI50 (SW 620): -4.42 M |
| O=C(Cc1ccccc1F)NC1=C(Cl)C(=O)c2ccccc2C1=O [Compound 2i, 2-(2-Fluorophenyl)acetamido-3-chloro-1,4-naphthoguinone] | – | – | -6.17 | -6.48 | -6.25 | – | -6.36 | – | -6.33 | -6.55 | – | – | -6.54 | -6.67 | -6.15 | -6.62 | -6.22 | -6.29 | -6.21 | -6.48 | cytotoxicity log GI50 (KM 12): -6.29 M; GI50 (human tumor cell lines; Homo sapiens, cancer cell panel, general / most cell lines, read-out: logGI50 values in the cancer cell line panel (converted)): 25.1 to 2510 nM; cytotoxicity log GI50 (LXFL 529): -6.40 M; cytotoxicity log GI50 (K-562): -6.53 M; cytotoxicity log GI50 (RPMI-8226): -6.44 M; cytotoxicity log GI50 (HCT-116): -6.37 M; cytotoxicity log GI50 (MOLT-4): -6.60 M; cytotoxicity log GI50 (SK-MEL-28): -6.34 M; cytotoxicity log GI50 (SR): -6.32 M; cytotoxicity log GI50 (HOP-18): -6.18 M |
| COC(=O)CCC(=O)NC1=C(NCc2ccccc2)C(=O)c2ccccc2C1=O [Compound 55] | – | – | -4.75 | – | -4.67 | -4.80 | – | -5.40 | – | -4.66 | -4.66 | – | – | -4.72 | -4.74 | -4.70 | -4.73 | -4.73 | -4.73 | -4.76 | cytotoxicity log GI50 (MCF-7): -4.76 M; cytotoxicity log GI50 (HCT-15): -4.77 M; cytotoxicity log GI50 (COLO-205): -4.69 M; cytotoxicity log GI50 (SK-MEL-5): -4.92 M; cytotoxicity log GI50 (SW 620): -4.70 M; cytotoxicity log GI50 (UACC-257): -4.78 M; cytotoxicity log GI50 (MDA-MB-435): -4.72 M; cytotoxicity log GI50 (LOX1MVI): -4.66 M; cytotoxicity log GI50 (MDA-N): -4.79 M |
| COC(=O)CCC(=O)NC1=C(Nc2ccccc2)C(=O)c2ccccc2C1=O [Compound 54] | – | – | – | – | – | – | – | -5.52 | – | -5.46 | – | – | – | – | – | -5.11 | – | -5.71 | -5.41 | -5.75 | cytotoxicity log GI50 (MCF-7): -5.75 M; cytotoxicity log GI50 (MALME-3M): -5.76 M; cytotoxicity log GI50 (UACC-257): -5.56 M; cytotoxicity log GI50 (MDA-MB-435): -5.67 M; cytotoxicity log GI50 (OVCAR-5): -5.41 M; cytotoxicity log GI50 (SK-MEL-28): -5.59 M; cytotoxicity log GI50 (MDA-N): -5.69 M |
